Source: patent US20040019060A1, “Sigma receptor ligands and their medical uses” (priority 2000, published 2004)
Structures can show the parent of a compound that is named as a salt. Where two headings read alike, the source gives them in different places.

How the values were obtained:
[1] = system: sponge angiogenesis; experiment: Rat sponge angiogenesis model (125I albumin vascular volume); assay type: in vivo, CBH/cbi rats
Procedure: In order to study neoangiogenesis in the absence of tumours, sterile polyether sponges were implanted into animals. This technique, developed in Cambridge, has been widely used to study angiogenesis. We have employed a triple radiotracer technique to study different aspects of the angiogenic process.
CBH/cbi rats were implanted s.c. with sterile 13 mm diameter sponges as above. They were treated i.p. with Rimcazole (30 mg/kg/day) for 14 days from day 0. Five minutes before termination, they were injected with ^125I labelled rat albumin (a macromolecule which, in the short term remains intravascular). The amount of radioiodine in the sponges is an index of vascular volume.

[2] = system: human vascular endothelial cells (HUVEC); experiment: Proliferation assay in HUVEC (phosphatase activity); assay type: cell-based; settings: 168 h, read-out: IC50 (dose required to inhibit proliferation to 50% of control), FIG. 2b, assay on day 7
Procedure: (§1) HUVECS (human umbilical vein endothelial cells) obtained from TCS Biologicals were grown in TCS Biologicals Large Vessel Endothelial Cell Basal Medium (ZHM-2951) with supplement (ZHS-8945). This contains heparin, hydrocortisone, human EGF, human bFGF (concentrations not disclosed by the Company) with added 2% FCS, pH 7.4.
(§2) The cells were seeded at 2×10^4 ml in 96 well microtitre plates on day 0, and sigma ligands were added in fresh medium on day 1. […] PCS at the concentrations indicated was present throughout the assay. Each concentration of drug was assayed in triplicate, and the vehicle concentration was kept constant.
(§3) Viable cells present at the end of the assay were estimated by determining phosphatase activity as follows: 100Xl of paranitrophenylphosphate (Sigma) at 3 mg/ml in phosphate buffer pH 5.5 containing 0.1% Triton X100 was added to wells and incubated for 2hr at 37° C. The reaction was stopped with 1N NaOH. Released paranitrophenol, indicative of attached cell number, was measured by reading the absorbance at 405 nm in a Titertek multiscan. “Background” counts (which were very low) were subtracted, and the survival in drug treated wells compared with that of control wells. The 100% value is the mean absorbance of control wells treated with vehicle alone; the 0% value is that of wells containing medium only.

[3] = system: human adult dermal fibroblasts; experiment: MTS cell viability/proliferation assay, dermal fibroblasts; assay type: cell-based
Excerpt: (Tissue in all cases was from healthy donors). […] Primary cell types included:
(§4) Cell density was checked microscopically at time zero.

[4] = system: Human endothelial cells co-cultured with human "feeder" fibroblasts; experiment: In vitro angiogenesis assay (pseudocapillary formation, anti-CD31 staining); assay type: cell-based
Procedure: Human endothelial cells co-cultured with human “feeder” fibroblasts on a fibrin matrix in 24 well plates were incubated with ligands at different concentrations. The ligands were added on days 0, 4, 7 and 9 and the experiment terminated on day 11. On each plate, 2 wells served as untreated controls, and 2 received suramin at […] as a standard angiogenesis inhibitor. Each concentration of ligand was assayed in triplicate. On day 11, the wells were washed, and the endothelial cells fixed and stained with anti-CD31 (PECAM-1) antibody and visualised with alkaline phosphatase conjugated second antibody. The cultures were scanned for image analysis and quantitation using a DataCell image analysis system and ImagePro software. Angiogenesis was expressed as the area and/or perimeter of “pseudocapillaries” formed in the gel by the endothelial cells.

[5] = system: endothelial cells; experiment: Endothelial cell proliferation assay (cell phosphatase activity); assay type: cell-based, human; settings: Homo sapiens, Endothelial cell
Procedure: as §1
(§5) HMEC-1 (immortalised human microvascular endothelial cells) obtained from Dr Colin Porter, Chester Beatty Laboratories were grown in TCS Biologicals Microvascular Endothelial Cell Basal Medium (ZHM-2946) with supplement (ZHS-8947). This contains heparin, hydrocortisone, human EGF, human bFGF, dibutyryl cyclic AMP (concentrations not disclosed by the Company) with added 5% FCS, pH 7.4.
as §5, with “HDMECS (human dermal” for “HMEC-1 (immortalised human”, “TCS Biologicals” for “Dr Colin Porter, Chester Beatty Laboratories”
as §2
Viable cells present at the end of the assay were estimated by determining phosphatase activity as follows: 100Xl of paranitrophenylphosphate (Sigma) at 3 mg/ml in phosphate buffer pH 5.5 containing 0.1% Triton X100 was added to wells and incubated for 2hr at 37° C. The reaction was stopped with 1N NaOH. Released paranitrophenol, indicative of attached cell number, was measured by reading the absorbance at 405 nm in a Titertek multiscan. […] The 100% value is the mean absorbance of control wells treated with vehicle alone; the 0% value is that of wells containing medium only.

[6] = system: human microvascular endothelial cells (HMEC-1); experiment: Proliferation assay in HMEC-1 (phosphatase activity); assay type: cell-based; settings: 168 h, read-out: IC50 (dose required to inhibit proliferation to 50% of control), HMEC-1, FIG. 2a, assay on day 7
Procedure: as §5, §2, §3

[7] = target: sigma-1 sites (Homo sapiens, UniProt Q99720); settings: Abou-Gharbia et al 1993; cited from earlier work
Chain of sigma-1 sites (Q99720 whole entry): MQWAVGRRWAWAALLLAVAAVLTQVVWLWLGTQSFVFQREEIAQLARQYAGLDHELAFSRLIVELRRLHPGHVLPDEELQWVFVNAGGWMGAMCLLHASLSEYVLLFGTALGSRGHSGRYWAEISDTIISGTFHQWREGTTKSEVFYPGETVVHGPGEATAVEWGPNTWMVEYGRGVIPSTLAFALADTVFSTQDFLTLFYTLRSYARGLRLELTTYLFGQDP

[8] = system: Human mammary carcinoma (MDA MB 468) cells; experiment: MTS cell viability/proliferation assay, mammary carcinoma cells; assay type: cell-based
Procedure: Human mammary carcinoma (MDA MB 468) cells were obtained from TCC, Manassas, Va., USA; catalogue number HTB-132; cells were grown in accordance with the manufacturer's instructions.
as §4

[9] = Pharmacokinetics in mice (LCMS of plasma, liver, spleen); assay type: in vivo, Balb/C mice
Procedure: Prior to undertaking any in vivo experiments with Rimcazole to study effects on tumour growth and angiogenesis, it was necessary to determine its pharmacokinetics in order that doses in the active range could be administered. Rimcazole (dissolved in water) was administered at 40 mg/kg i.p to Balb/C mice. Heparinised blood samples were taken at 5, 15 and 30 minutes, 1,2,4,6, and 24 hours and plasma separated. Tissue samples were also taken at some time points for analysis. Rimcazole samples were initially analysed by LCMS.
Column: Supelco 50×4.6 mm ABZ+ with 5 μ packing.
Mobile phase: A=HPLC grade methanol, B=0.1% formic acid in water.
Full scan mode: mass range analysed 50 to 850 amu.
MSMS mode: filtered ions were 322 (Rimcazole), 338 (Rimcazole+oxygen), and 514 (glucuronide of 338 metabolite).

[10] = system: Human adult dermal microvascular endothelial cells; experiment: MTS cell viability/proliferation assay, microvascular endothelial cells; settings: Homo sapiens, Endothelial cell

C[C@@H]1CN(CCCn2c3ccccc3c3ccccc32)C[C@H](C)N1 [Rimcazole, cis-9-[3,5-dimethyl-1-piperazinyl) propyl]carbazole dihydrochloride]
Vascular volume of normal organs (liver and kidney) ([1]; 30 mg/kg/day for 14 days): unaffected
Neoangiogenesis in sponges (vascular volume, radiolabelled albumin) ([1]; 30 mg/kg/day for 14 days after implantation, FIG. 7b): reduced
IC50 [2]: < 5 µM
Survival and proliferation (MTS) ([3]; 10 micromolar, up to 48 hours, FIG. 9): continued to proliferate vigorously
Tolerance of fibroblasts over a range of concentrations (MTS) ([3]; 100 micromolar to 1 nanomolar, FIG. 10): remarkably resistant
Inhibition of in vitro angiogenesis ([4]; 4 μM, FIG. 5c): complete inhibition of angiogenesis
Inhibition of pseudocapillary formation (in vitro angiogenesis) ([4]; FIG. 4, 5a, 5b angiogenesis area): very effective in inhibiting
activity at 4 µM ([5]; 4 μM Rimcazole, read-out: Endothelial cell proliferation, % of control cells): < 50%
IC50 ([5]; concentration of drug required to inhibit survival and/or proliferation by 50%, read-out: Antagonists: IC50): 5 µM
IC50 [6]: < 5 µM
selectivity for sigma-1 compared to sigma-2 sites [7]: approximately 5 fold
Effect of sublethal concentration (MTS) ([8]; 5 micromolar, FIG. 10 bottom panel): cytostasis
Cell killing (MTS viability) ([8]; 10 micromolar, low passage cells, FIG. 9): no surviving cells remained after 24 hours
Tissue levels relative to plasma ([9]; Rimcazole 40 mg/kg i.p., mice, spleen and liver): higher in spleen and liver than in plasma
Plasma levels relative to IC50 ([9]; once daily dosing at 40 mg/kg): plasma levels above the IC50 for a significant period
cytotoxicity at 10 µM ([10]; read-out: Reduction in viability): ~80%
cytotoxicity at 10 µM ([10]; read-out: Reduction in viable cell numbers compared to baseline values): 60 to 80%
